{"source": "patent US20220273590A1", "about": "“COMPOUNDS FOR PREVENTION AND TREATMENT OF POST-OPERATIVE COGNITIVE DYSFUNCTION” (ABREXA PHARMACEUTICALS, INC., priority 2019, published 2022)", "key": {"[1]": {"test": "Pharmacokinetic plasma parameters of J147, oral and intravascular administration", "assay_type": "in vivo, Adult Wister Rats", "conditions": "for FInf: calculated based on AUCInf; for Flast: calculated based on AUClast", "method": "Plasma samples obtained during surgery in J147-treated rats and 3 control rats were measured for circulating levels of J147. Results of pharmacokinetic measures of both plasma and brain levels of J147 in rats following oral administration of J147 in basis suspension at 20 mg/kg and also following intravascular administration at 5 mg/kg are shown in Table 2A-C below. When taking the absence of an appropriate peak as zero, mean concentration is 0 ng/ml in controls, 3.103 ng/ml in acutely treated rats and 0.233 ng/ml in chronically treated rats. J147 levels in food were verified as well (467 mg/kg). […] During the first 10 days after surgery and individual housing, rats on the diet ate on average 20±1 g, which was similar to the 20±1 g in surgery with control food and 23±1 g in non-surgery controls, verifying the anticipated intake of 10 mg J147/rat/day and further supporting no preference or aversion for the diet food."}, "animal model of POCD": {"tested_on": "animal model of POCD", "test": "Open Field test after abdominal surgery", "assay_type": "in vivo, Wistar rats", "method": "Male Wistar rats (˜350 g) were randomly divided into 4 experimental groups; non-surgery; control abdominal surgery; surgery+acute J147 treatment (7 mg/rat by gavage, 4-5 hours before surgery); surgery+chronic J147 (500 mg/kg food, 1 week before surgery until the end of the study). Timed blood samples were collected. Days 9-11 post surgery, general behavior (Open field: OF) and cognitive performance (Novel Object/Novel Location Recognition: NOR/NLR; Morris Water Maze: MWM) were tested. Day 14, rats were sacrificed and blood and brain tissue were collected for further analyses. (Neuro)inflammation was examined by circulating cytokine levels and microglia activation in the brain. Abdominal surgery was performed as described previously by Hovens et al., 2014. Rats were anaesthetized using sevoflurane (±2.5% in air/O2=2/1) and received 0.01 mg/kg buprenorphine s.c. A heating blanket was used to preserve body temperature. An incision was made along the linea alba and the intestines were exteriorised. The upper mesenteric artery was isolated from surrounding tissue and clamped for a period of 30 minutes during which the intestines and surgical wound were covered with gauze soaked in saline, to prevent dehydration. During this time the animals were equipped with an indwelling jugular vein catheter to mimic insertion of a venous line in patients and allow timed blood sampling. For that, an incision was made at the subclavical region, the jugular vein was freed from surrounding tissue and a catheter was introduced and advanced into the vena cava, just above the right atrium. The other end of the catheter was guided subcutaneously to the head, and fixated on the skull with dental cement. The catheter was filled with PVP dissolved in heparin solution and closed with a plastic plug. After subsequent removal of the mesenteric artery clamp, the intestines were gently placed back and the abdominal wall and skin were closed separately by sutures. Clamping and reperfusion were visually verified by absence or presence of pulsation in the mesenteric artery distal to the clamp site. From induction to recovery, the procedure takes approximately 60 minutes. Post-operatively, the animals were allowed to recover and subsequently were housed individually. Rats were weighed daily at the last hour of the dark period. Maximal weight loss within the first 5 days post-surgery was taken as measure of experienced severity of surgery. Behavioral tests were performed in the dark (active) period of the rats. […] The movement as well as location of the rat was recorded as time in corner, walls and center, number of visits in the center and the distance walked, and analyzed with Ethovision (Noldus, the Netherlands). Rearing behavior was analyzed by Eline. […]"}, "[2]": {"conditions": "IV 5 mg/kg, 1 mg/mL in DMSO/PEG 200/Saline 5/70/25, individual animals (1148, 1154, 1156, 1158), 5 mg/kg"}, "[3]": {"conditions": "IV 5 mg/kg, individual animals (1148, 1154, 1156, 1158), 5 mg/kg"}, "[4]": {"conditions": "PO_A 20 mg/kg, 7 mg/mL in Basis, individual animals (1142, 1144, 1150, 1166), 20 mg/kg"}, "[5]": {"conditions": "PO_A 20 mg/kg, individual animals (1142, 1144, 1150, 1166), 20 mg/kg"}, "[6]": {"conditions": "Wistar, rat, plasma, iv, 5 mg/kg, IV 5 mg/kg, Mean of 4 animals"}, "[7]": {"conditions": "Wistar, rat, plasma, po, 20 mg/kg, PO_B (oral, Basis), Mean"}}, "note": "Values joined by “and” are separate entries in the source; they are usually repeats but may differ in a detail not shown here. Identical values can stand only once. Like-named read-outs stand apart in the source and are kept apart here.", "data": [{"molecule": "COc1cccc(/C=N/N(C(=O)C(F)(F)F)c2ccc(C)cc2C)c1", "note": "[J147]", "values": [{"measurement": "C0", "setting": "[1]; [2]", "value": "4706 ng/mL and 384 ng/mL and 1572 ng/mL and 2509 ng/mL"}, {"measurement": "Cl_obs", "setting": "[1]; [2]", "value": "90.2 mL/min/kg and 98.9 mL/min/kg and 107 mL/min/kg"}, {"measurement": "Tmax", "setting": "[1]; [2]", "value": "4.98 min and 15 min"}, {"measurement": "t1/2", "setting": "[1]; [2]", "value": "64.8 min and 57.8 min and 51.1 min"}, {"measurement": "AUC_% Ex Trap", "setting": "[1]; IV 5 mg/kg, Mean of 4 animals", "value": 1.58, "unit": "%"}, {"measurement": "Cl_obs", "setting": "[1]; IV 5 mg/kg, Mean of 4 animals", "value": 77.4, "unit": "mL/min/kg"}, {"measurement": "vss_obs", "setting": "[1]; IV 5 mg/kg, Mean of 4 animals", "value": 5.18, "unit": "L/kg"}, {"measurement": "AUCInf", "setting": "[1]; [3]", "value": "842 ng·h/mL and 631 ng·h/mL and 781 ng·h/mL"}, {"measurement": "AUC_% Ex Trap", "setting": "[1]; [3]", "value": "1.14% and 2.31% and 1.89% and 0.979%"}, {"measurement": "MRT", "setting": "[1]; [3]", "value": "55.6 min and 44.1 min and 34.3 min"}, {"measurement": "vss_obs", "setting": "[1]; [3]", "value": "3.39 L/kg and 6.41 L/kg and 6.82 L/kg and 4.07 L/kg"}, {"measurement": "AUClast", "setting": "[1]; IV 5 mg/kg, last time point 6 h, Mean of 4 animals", "value": 782, "unit": "ng·mL·h"}, {"measurement": "AUClast", "setting": "[1]; IV 5 mg/kg, last time point 6 h, individual animals (1148, 1154, 1156, 1158), 5 mg/kg", "value": "913 ng·mL·h and 823 ng·mL·h and 619 ng·mL·h and 774 ng·mL·h"}, {"measurement": "Cmax", "setting": "[1]; [4]", "value": "29.0 ng/mL and 39.9 ng/mL and 36.5 ng/mL and 69.2 ng/mL"}, {"measurement": "t1/2", "setting": "[1]; [4]", "value": "96.6 min and 70.8 min"}, {"measurement": "AUC_% Ex Trap", "setting": "[1]; PO_A 20 mg/kg, Mean", "value": 7.60, "unit": "%"}, {"measurement": "FInf", "setting": "[1]; PO_A 20 mg/kg, Mean", "value": 4.29, "unit": "%"}, {"measurement": "FInf", "setting": "[1]; [5]", "value": "2.64% and 2.72% and 7.50%"}, {"measurement": "Flast", "setting": "[1]; PO_A 20 mg/kg, Mean", "value": 3.61, "unit": "%"}, {"measurement": "Flast", "setting": "[1]; [5]", "value": "2.45% and 2.23% and 2.51% and 7.25%"}, {"measurement": "AUCInf", "setting": "[1]; [5]", "value": "82.5 ng·h/mL and 91.5 ng·h/mL and 189 ng·h/mL"}, {"measurement": "AUC_% Ex Trap", "setting": "[1]; [5]", "value": "7.91% and 9.72% and 5.17%"}, {"measurement": "AUClast", "setting": "[1]; PO_A 20 mg/kg, last time point 6 h, Mean", "value": 105, "unit": "ng·mL·h"}, {"measurement": "AUClast", "setting": "[1]; PO_A 20 mg/kg, last time point 6 h, individual animals (1142, 1144, 1150, 1166), 20 mg/kg", "value": "76.0 ng·mL·h and 81.6 ng·mL·h and 82.6 ng·mL·h and 180 ng·mL·h"}, {"measurement": "AUC_% Ex Trap", "setting": "[1]; PO_B (oral, Basis), Mean", "value": 15.9, "unit": "%"}, {"measurement": "AUClast", "setting": "[1]; PO_B (oral, Basis), last time point 4 h, Mean", "value": 64.7, "unit": "ng·mL·h"}, {"measurement": "half-life", "setting": "[1]; Wistar, rat, plasma, iv, 5 mg/kg, IV 5 mg/kg, 1 mg/mL in DMSO/PEG 200/Saline 5/70/25, individual animals (1148, 1154, 1156, 1158)", "value": 63.6, "unit": "min"}, {"measurement": "AUC(0-inf)", "setting": "[1]; [6]", "value": 795, "unit": "ng·h/mL"}, {"measurement": "half-life", "setting": "[1]; [6]", "value": 59.2, "unit": "min"}, {"measurement": "C0", "setting": "[1]; Wistar, rat, plasma, iv, 5 mg/kg, IV 5 mg/kg, Mean of 4 animals, read-out: C0", "value": 2290, "unit": "ng/mL"}, {"measurement": "MRT", "setting": "[1]; Wistar, rat, plasma, iv, 5 mg/kg, IV 5 mg/kg, Mean of 4 animals, read-out: MRT", "value": 41.7, "unit": "min"}, {"measurement": "Tmax", "setting": "[1]; Wistar, rat, plasma, iv, 5 mg/kg, IV 5 mg/kg, Mean of 4 animals, read-out: tmax", "value": 7.5, "unit": "min"}, {"measurement": "AUC(0-inf)", "setting": "[1]; Wistar, rat, plasma, iv, 5 mg/kg, IV 5 mg/kg, individual animals (1148, 1154, 1156, 1158)", "value": 924, "unit": "ng·h/mL"}, {"measurement": "MRT", "setting": "[1]; Wistar, rat, plasma, iv, 5 mg/kg, IV 5 mg/kg, individual animals (1148, 1154, 1156, 1158), read-out: MRT", "value": 32.8, "unit": "min"}, {"measurement": "half-life", "setting": "[1]; Wistar, rat, plasma, po, 20 mg/kg, PO_A 20 mg/kg, 7 mg/mL in Basis, Mean", "value": 84.6, "unit": "min"}, {"measurement": "Cmax", "setting": "[1]; Wistar, rat, plasma, po, 20 mg/kg, PO_A 20 mg/kg, 7 mg/mL in Basis, Mean, read-out: Cmax", "value": 43.7, "unit": "ng/mL"}, {"measurement": "Tmax", "setting": "[1]; Wistar, rat, plasma, po, 20 mg/kg, PO_A 20 mg/kg, 7 mg/mL in Basis, Mean, read-out: tmax", "value": 52.8, "unit": "min"}, {"measurement": "half-life", "setting": "[1]; Wistar, rat, plasma, po, 20 mg/kg, PO_A 20 mg/kg, 7 mg/mL in Basis, individual animals (1142, 1144, 1150, 1166)", "value": 87, "unit": "min"}, {"measurement": "Tmax", "setting": "[1]; Wistar, rat, plasma, po, 20 mg/kg, PO_A 20 mg/kg, 7 mg/mL in Basis, individual animals (1142, 1144, 1150, 1166), read-out: tmax", "value": 60, "unit": "min"}, {"measurement": "AUC(0-inf)", "setting": "[1]; Wistar, rat, plasma, po, 20 mg/kg, PO_A 20 mg/kg, Mean", "value": 121, "unit": "ng·h/mL"}, {"measurement": "AUC(0-inf)", "setting": "[1]; [7]", "value": 76.9, "unit": "ng·h/mL"}, {"measurement": "half-life", "setting": "[1]; [7]", "value": 85.2, "unit": "min"}, {"measurement": "Cmax", "setting": "[1]; Wistar, rat, plasma, po, 20 mg/kg, PO_B (oral, Basis), Mean, read-out: Cmax", "value": 47.4, "unit": "ng/mL"}, {"measurement": "Tmax", "setting": "[1]; Wistar, rat, plasma, po, 20 mg/kg, PO_B (oral, Basis), Mean, read-out: tmax", "value": 30, "unit": "min"}, {"measurement": "Open field: effect of treatment on time in the center area or distance walked", "setting": "animal model of POCD; acute or chronic J147, surgery rats", "value": "no significant effects"}, {"measurement": "Open field: rearing behavior", "setting": "animal model of POCD; surgery + chronic J147", "value": "significantly more rearing behavior"}, {"measurement": "Open field: visits to the center area", "setting": "animal model of POCD; surgery + chronic J147", "value": "significantly more often"}, {"measurement": "Open field: time in the center", "setting": "animal model of POCD; surgery + chronic J147, versus the other groups", "value": "tend to spend more time in the center"}]}]}
